Data published in ChEMBL document CHEMBL1201862, “PubChem BioAssay data set” (2004).
Active and inactive are the calls of the source.

What was measured:
[1] = inhibitors of intracellular T. cruzi replication, confirmation, NIH3T3 host cells, beta-gal luminescence (AID 2044); format: functional, cell-based;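 also: intracellular parasites grown in NIH/3T3 mouse fibroblasts as host cells; luminescent beta-galactosidase reporter signal from transgenic T. cruzi replicating inside host cells; inhibitors lower the luminescence signal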
[2] = cytotoxicity toward NIH3T3 fibroblasts, dose response, counter-screen, cell-based, ATP luminescence, mouse fibroblasts (AID 2010); format: functional;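 also: cells exposed to compound for about 90 hours before reading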
[3] = molecular target: T1, Heat shock factor protein 1 (Mus musculus, UniProt P38532); assay: inhibition of MG132-induced HSE-luciferase signal, confirmation, cell-based, NIH3T3, luminescence, dose retest (AID 2382); format: functional;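 also: NIH3T3 fibroblasts with HSF1-driven luciferase reporter stressed by proteasome inhibitor MG132; luminescence from HSF1-driven luciferase expression after 8 hours of MG132 stress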
T1 sequence (P38532 whole entry): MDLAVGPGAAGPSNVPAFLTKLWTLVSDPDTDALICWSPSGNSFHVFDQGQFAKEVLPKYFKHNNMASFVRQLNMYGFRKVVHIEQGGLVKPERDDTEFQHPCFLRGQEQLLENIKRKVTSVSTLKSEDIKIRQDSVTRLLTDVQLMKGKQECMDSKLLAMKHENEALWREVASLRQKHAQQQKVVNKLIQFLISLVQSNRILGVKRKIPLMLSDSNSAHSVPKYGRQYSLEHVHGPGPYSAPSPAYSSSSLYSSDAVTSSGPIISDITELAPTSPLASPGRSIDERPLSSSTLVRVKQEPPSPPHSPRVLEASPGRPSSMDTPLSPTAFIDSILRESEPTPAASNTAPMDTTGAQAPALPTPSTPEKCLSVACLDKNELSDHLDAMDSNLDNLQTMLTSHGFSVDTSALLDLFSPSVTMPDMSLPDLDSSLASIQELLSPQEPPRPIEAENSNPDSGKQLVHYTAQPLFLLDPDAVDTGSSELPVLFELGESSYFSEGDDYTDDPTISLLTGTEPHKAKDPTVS

Cytochrome P450 2C9 = Cytochrome P450 2C9 (Homo sapiens, UniProt P11712)
Sequence of Cytochrome P450 2C9 (P11712 whole entry): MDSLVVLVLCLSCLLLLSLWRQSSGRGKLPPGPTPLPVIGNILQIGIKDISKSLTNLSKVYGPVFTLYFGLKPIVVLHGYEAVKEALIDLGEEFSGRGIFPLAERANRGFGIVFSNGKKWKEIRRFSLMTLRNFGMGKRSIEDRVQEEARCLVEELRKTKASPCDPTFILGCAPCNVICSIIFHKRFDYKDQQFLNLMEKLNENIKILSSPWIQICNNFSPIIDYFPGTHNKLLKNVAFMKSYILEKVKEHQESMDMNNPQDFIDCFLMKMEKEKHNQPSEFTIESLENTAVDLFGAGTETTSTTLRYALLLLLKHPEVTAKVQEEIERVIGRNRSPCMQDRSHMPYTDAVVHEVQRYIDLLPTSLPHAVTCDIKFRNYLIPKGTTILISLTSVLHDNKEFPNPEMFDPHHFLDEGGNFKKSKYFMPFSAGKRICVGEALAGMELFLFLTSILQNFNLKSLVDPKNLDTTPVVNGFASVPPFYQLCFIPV

Cytochrome P450 3A4 = Cytochrome P450 3A4 (Homo sapiens, UniProt P08684);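 also: CYP3A4 tested as one member of a cytochrome P450 panel screen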
Sequence of Cytochrome P450 3A4 (P08684 whole entry): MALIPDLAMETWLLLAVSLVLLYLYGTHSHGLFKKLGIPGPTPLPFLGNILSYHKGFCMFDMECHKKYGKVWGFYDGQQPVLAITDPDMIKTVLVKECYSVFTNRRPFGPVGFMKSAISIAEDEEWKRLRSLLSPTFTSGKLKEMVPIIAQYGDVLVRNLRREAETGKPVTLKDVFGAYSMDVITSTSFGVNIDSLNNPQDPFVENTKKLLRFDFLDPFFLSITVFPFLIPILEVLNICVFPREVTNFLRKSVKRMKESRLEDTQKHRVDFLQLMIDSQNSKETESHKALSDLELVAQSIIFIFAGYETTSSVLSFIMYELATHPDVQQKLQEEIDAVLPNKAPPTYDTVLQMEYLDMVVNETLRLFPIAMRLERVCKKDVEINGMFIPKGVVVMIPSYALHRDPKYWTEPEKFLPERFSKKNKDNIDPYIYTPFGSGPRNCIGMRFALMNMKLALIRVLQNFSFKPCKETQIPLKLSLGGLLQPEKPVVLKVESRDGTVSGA

Cytochrome P450 2D6 = Cytochrome P450 2D6 (Homo sapiens, UniProt P10635);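 also: CYP2D6 member of a cytochrome P450 panel assay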
Sequence of Cytochrome P450 2D6 (P10635 whole entry): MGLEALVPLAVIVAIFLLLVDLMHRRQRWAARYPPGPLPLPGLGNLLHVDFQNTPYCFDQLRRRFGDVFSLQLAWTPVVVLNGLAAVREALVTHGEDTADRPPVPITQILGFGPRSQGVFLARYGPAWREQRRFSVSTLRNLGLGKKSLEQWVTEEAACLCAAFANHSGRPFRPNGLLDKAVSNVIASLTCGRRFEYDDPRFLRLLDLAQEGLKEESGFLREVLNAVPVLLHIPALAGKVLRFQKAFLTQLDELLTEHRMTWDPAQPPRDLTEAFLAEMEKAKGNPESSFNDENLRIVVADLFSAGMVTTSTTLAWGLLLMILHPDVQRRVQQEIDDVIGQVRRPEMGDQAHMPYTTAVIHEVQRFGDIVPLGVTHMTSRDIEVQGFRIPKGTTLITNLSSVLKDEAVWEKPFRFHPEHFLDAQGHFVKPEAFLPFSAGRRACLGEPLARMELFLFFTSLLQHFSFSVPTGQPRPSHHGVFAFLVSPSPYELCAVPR

Cytochrome P450 2C19 = Cytochrome P450 2C19 (Homo sapiens, UniProt P33261); assay: Cytochrome panel assay with activity outcomes. Panel member name: p450-cyp2c19 Compounds with AC50 equal or less than 10 uM are considered active; format: functional
Sequence of Cytochrome P450 2C19 (P33261 whole entry): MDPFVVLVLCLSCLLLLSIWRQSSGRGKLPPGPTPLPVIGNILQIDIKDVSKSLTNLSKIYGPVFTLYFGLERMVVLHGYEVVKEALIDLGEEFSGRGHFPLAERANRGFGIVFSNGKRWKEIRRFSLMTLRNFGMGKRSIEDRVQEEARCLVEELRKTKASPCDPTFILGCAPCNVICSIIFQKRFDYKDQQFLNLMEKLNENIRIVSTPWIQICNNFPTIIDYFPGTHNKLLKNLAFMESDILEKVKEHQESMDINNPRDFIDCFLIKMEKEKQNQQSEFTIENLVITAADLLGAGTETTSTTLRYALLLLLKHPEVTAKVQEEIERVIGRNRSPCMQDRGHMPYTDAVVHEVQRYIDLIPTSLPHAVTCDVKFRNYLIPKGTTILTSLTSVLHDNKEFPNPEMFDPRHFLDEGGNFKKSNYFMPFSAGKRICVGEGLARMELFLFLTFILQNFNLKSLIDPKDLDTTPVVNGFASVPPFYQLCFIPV

With `O=C(NCC1CCCN(Cc2ccccc2F)C1)c1cccc(C(F)(F)F)c1` (stereo not given) the EC50 [1] was 0.975 µM (active) and the EC50 [2] was > 60 µM (not active).
In the case of `COc1ccc2nc3c(O)n(CCCN4CCOCC4)cnc-3c2c1`, the EC50 [3] is reported as > 195 µM (not active).
For `CCCCCCN1CC(=O)N2[C@@H](Cc3c([nH]c4ccccc34)C2(C)C)C1=O`, the EC50 [3] was > 195 µM (not active).
With `CN1CCN(NC(=O)c2cc([N+](=O)[O-])cc([N+](=O)[O-])c2)CC1` the EC50 [1] was 2.33 µM (active) and the EC50 [2] was > 30 µM (not active).
In the case of `COc1ccc(NC(=O)Cn2c(=O)n(Cc3ccco3)c(=O)c3ccccc32)cc1`, the EC50 [3] is reported as > 195 µM (not active).
For `O=C(NCCc1ccccn1)c1cc(C(=O)C2CCCCC2)c[nH]1`, the AC50 (Cytochrome P450 2C9) was 0.158 µM (inconclusive).
For `O=C(CCN1CCN(C/C=C/c2ccccc2)CC1)Nc1ccccc1`, the EC50 [1] was 1.95 µM (active) and the EC50 [2] was > 60 µM (not active).
In the case of `Cn1c(SC2CCCCC2=O)nnc1-c1ccncc1` (stereo not given), the AC50 (Cytochrome P450 3A4) is reported as 25.1 µM (inconclusive).
In the case of `Cc1ccc([N+](=O)[O-])cc1NC(=S)NC(=O)CC(C)(C)C`, the AC50 (Cytochrome P450 2D6) is reported as 12.6 µM (inconclusive) and the AC50 (Cytochrome P450 3A4) is reported as 22.4 µM (inconclusive).
With `O=C(C1=C[C@H](c2csc3ccccc23)C[C@H](OCc2ccc(CO)cc2)O1)N1CCN(Cc2ccc3c(c2)OCO3)CC1` the EC50 [1] was 0.137 µM (active) and the EC50 [2] was > 60 µM (not active).
In the case of `Nc1ccccc1S[C@@H](C[N+](=O)[O-])c1ccc2c(c1)OCO2`, the AC50 (Cytochrome P450 3A4) is reported as 2.51 µM (inconclusive) and the AC50 (Cytochrome P450 2C9) is reported as 6.31 µM (inconclusive).
With `Cc1oc(-c2ccccc2F)nc1C[S+]([O-])CC(=O)N1CCC2(CC1)OCCO2` (stereo not given) the AC50 (Cytochrome P450 2C9) was 20 µM (inconclusive).
In the case of `COc1ccccc1CN1CCN(Cc2nc(Cc3ccccc3)no2)CC1`, the EC50 [1] is reported as 0.754 µM (active) and the EC50 [2] is reported as > 30 µM (not active).
In the case of `COc1ccc(/C=C/C(=O)Oc2ccc(/C=N/NC(=O)COc3c(C)cccc3C)cc2)cc1`, the EC50 [3] is reported as > 195 µM (not active).
With `Cc1ccc(C(=N)NOC(=O)Cc2cccs2)cc1` the AC50 (Cytochrome P450 3A4) was 28.2 µM (inconclusive).
In the case of `COc1ccc2[nH]cc(CCNc3ccnc(-c4cccc(NS(C)(=O)=O)c4)n3)c2c1`, the AC50 (Cytochrome P450 3A4) is reported as 2.51 µM (inconclusive) and the AC50 (Cytochrome P450 2C9) is reported as 0.126 µM (inconclusive).
With `O=C(Nc1cccnc1)c1noc2c1CCCCC2` the EC50 [3] was 0.288 µM (active).
With `O=S(=O)(NCc1ccc(C(F)(F)F)cc1)c1ccc(-n2cnnn2)cc1` the EC50 [3] was > 195 µM (not active).
For `CCNc1ncc2nc(CCc3ccccc3)c(=O)n(C3CC3)c2n1`, the AC50 (Cytochrome P450 2C9) was 3.98 µM (inconclusive).
In the case of `O=C(CN(CC1CCCO1)C(=O)CNS(=O)(=O)c1ccc(Cl)cc1)NCCc1ccccc1` (stereo not given), the AC50 (Cytochrome P450 2D6) is reported as 39.8 µM (inconclusive) and the AC50 (Cytochrome P450 2C9) is reported as 22.4 µM (inconclusive).
In the case of `COc1ccc(CCNC(=O)C2CCN(S(=O)(=O)N3CC(C)CC(C)C3)CC2)cc1OC` (stereo not given), the AC50 (Cytochrome P450 2C9) is reported as 22.4 µM (inconclusive).
With `CCOC(=O)c1ccc(S(=O)(=O)N2CCN(C)CC2)cc1` the AC50 (Cytochrome P450 2C9) was 39.8 µM (inconclusive).
With `N#CC(C#N)=C(N)/C(C#N)=C/c1ccc(O)cc1` the AC50 (Cytochrome P450 3A4) was 39.8 µM (inconclusive).
For `COc1cccc(-c2csc(N3CCN(C(=S)Nc4ccccc4)CC3)n2)c1`, the AC50 (Cytochrome P450 2C9) was 0.158 µM (inconclusive).
For `CCN(CC)C(=O)C1CCCN(c2ccc([N+](=O)[O-])cc2/C=N/NC(=O)c2ccc([N+](=O)[O-])cc2)C1` (stereo not given), the EC50 [3] was > 195 µM (not active) and the AC50 (Cytochrome P450 3A4) was 2.82 µM (inconclusive).
With `CCN1C(=O)C(CC(=O)Nc2ccc(OC)cc2)N(Cc2cccs2)C1=S` (stereo not given) the AC50 (Cytochrome P450 2D6) was 14.1 µM (inconclusive).
For `Cc1nc(N=C(N)NS(=O)(=O)c2ccc([N+](=O)[O-])cc2)nc2ccccc12`, the EC50 [1] was 0.452 µM (active) and the EC50 [2] was 24.6 µM (active).
With `O[C@@H](COc1cccc2ccccc12)CN1CCOCC1` the AC50 (Cytochrome P450 2C19; read-out: AC50) was 0.0501 µM (inconclusive).
In the case of `CCN(CC)C(=O)C1CCCN(Cc2ccc(N(C)C)cc2)C1` (stereo not given), the EC50 [1] is reported as 0.296 µM (active) and the EC50 [2] is reported as > 60 µM (not active).
With `COc1ccccc1CN(C)C(=O)C1COc2ccccc2O1` (stereo not given) the EC50 [3] was > 195 µM (not active).
In the case of `Sc1c2ncnc-2ncn1CCSc1[nH]cnc2ncnc1-2`, the AC50 (Cytochrome P450 2C19) is reported as “inconclusive”.
In the case of `CN(C)c1ncc(CN2CCC(CO)(CCCc3ccccc3)CC2)s1`, the EC50 [1] is reported as 0.996 µM (active) and the EC50 [2] is reported as > 60 µM (not active).
In the case of `CCOC(=O)c1cncc(C(=O)O)c1`, the AC50 (Cytochrome P450 2C19; read-out: AC50) is reported as 31.6 µM (inconclusive).
For `Cc1ccc(C(=O)N/N=C/c2nc3ccccc3n2C)cc1`, the AC50 (Cytochrome P450 2C19; read-out: AC50) was 15.8 µM (inconclusive), the AC50 (Cytochrome P450 3A4) was 3.16 µM (inconclusive) and the AC50 (Cytochrome P450 2C9) was 12.6 µM (inconclusive).
For `COc1cccc(C(=O)Nc2nc3c(s2)CN(C)CC3)c1`, the AC50 (Cytochrome P450 2D6) was 25.1 µM (inconclusive).
